Data from patent publication US20180099931A1 (AbbVie S.à.r.l., priority 2016, published 2018).
Like-named read-outs stand apart in the source and are kept apart here.

Target: T1, F508delCFTR (Homo sapiens, UniProt P13569, DEL508-508)
T1 construct: expressed in transfected cells; host or cells: CFBE41o- human lung-derived epithelial cells (CFBE4lo-F508delCFTR-HRP), doxycycline-inducible
Assay: Cell Surface Expression-Horse Radish Peroxidase (CSE-HRP) Assay;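 for Maximum % activity (with co-corrector): co-corrector and positive control are both the same reference corrector at 2 µM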;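 for Maximum % activity (without co-corrector): percent of the 2 µM on-plate positive control corrector response above DMSO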
Type: cell-based
Conditions: for Emax: read-out: Maximum % activity (without co-corrector)

[1] = test compound without co-corrector, maximum at any tested concentration, normalized to on-plate positive control
[2] = test compound without co-corrector, read-out: EC50 (without co-corrector)
[3] = with co-corrector (2 μM of 3-[(2R,4R)-4-({[1-(2,2-difluoro-1,3-benzodioxol-5-yl)cyclopropyl]carbonyl}amino)-7-methoxy-3,4-dihydro-2H-chromen-2-yl]benzoic acid), maximum at any tested concentration, normalized to on-plate positive control
[4] = with co-corrector (2 μM of 3-[(2R,4R)-4-({[1-(2,2-difluoro-1,3-benzodioxol-5-yl)cyclopropyl]carbonyl}amino)-7-methoxy-3,4-dihydro-2H-chromen-2-yl]benzoic acid), read-out: EC50 (with co-corrector)
[5] = with co-corrector (2 μM), maximum at any tested concentration, normalized to on-plate positive control
[6] = without co-corrector, maximum at any tested concentration, normalized to on-plate positive control
[7] = CSE-HRP, test compound without co-corrector, read-out: EC50 (without co-corrector)
[8] = CSE-HRP, with co-corrector (2 μM of 3-[(2R,4R)-4-({[1-(2,2-difluoro-1,3-benzodioxol-5-yl)cyclopropyl]carbonyl}amino)-7-methoxy-3,4-dihydro-2H-chromen-2-yl]benzoic acid), read-out: EC50 (with co-corrector)
[9] = CSE-HRP, with co-corrector (2 μM), maximum at any tested concentration, normalized to on-plate positive control
[10] = CSE-HRP, without co-corrector, maximum at any tested concentration, normalized to on-plate positive control

T1 sequence (P13569 with tags, fused parts or gaps DEL508-508): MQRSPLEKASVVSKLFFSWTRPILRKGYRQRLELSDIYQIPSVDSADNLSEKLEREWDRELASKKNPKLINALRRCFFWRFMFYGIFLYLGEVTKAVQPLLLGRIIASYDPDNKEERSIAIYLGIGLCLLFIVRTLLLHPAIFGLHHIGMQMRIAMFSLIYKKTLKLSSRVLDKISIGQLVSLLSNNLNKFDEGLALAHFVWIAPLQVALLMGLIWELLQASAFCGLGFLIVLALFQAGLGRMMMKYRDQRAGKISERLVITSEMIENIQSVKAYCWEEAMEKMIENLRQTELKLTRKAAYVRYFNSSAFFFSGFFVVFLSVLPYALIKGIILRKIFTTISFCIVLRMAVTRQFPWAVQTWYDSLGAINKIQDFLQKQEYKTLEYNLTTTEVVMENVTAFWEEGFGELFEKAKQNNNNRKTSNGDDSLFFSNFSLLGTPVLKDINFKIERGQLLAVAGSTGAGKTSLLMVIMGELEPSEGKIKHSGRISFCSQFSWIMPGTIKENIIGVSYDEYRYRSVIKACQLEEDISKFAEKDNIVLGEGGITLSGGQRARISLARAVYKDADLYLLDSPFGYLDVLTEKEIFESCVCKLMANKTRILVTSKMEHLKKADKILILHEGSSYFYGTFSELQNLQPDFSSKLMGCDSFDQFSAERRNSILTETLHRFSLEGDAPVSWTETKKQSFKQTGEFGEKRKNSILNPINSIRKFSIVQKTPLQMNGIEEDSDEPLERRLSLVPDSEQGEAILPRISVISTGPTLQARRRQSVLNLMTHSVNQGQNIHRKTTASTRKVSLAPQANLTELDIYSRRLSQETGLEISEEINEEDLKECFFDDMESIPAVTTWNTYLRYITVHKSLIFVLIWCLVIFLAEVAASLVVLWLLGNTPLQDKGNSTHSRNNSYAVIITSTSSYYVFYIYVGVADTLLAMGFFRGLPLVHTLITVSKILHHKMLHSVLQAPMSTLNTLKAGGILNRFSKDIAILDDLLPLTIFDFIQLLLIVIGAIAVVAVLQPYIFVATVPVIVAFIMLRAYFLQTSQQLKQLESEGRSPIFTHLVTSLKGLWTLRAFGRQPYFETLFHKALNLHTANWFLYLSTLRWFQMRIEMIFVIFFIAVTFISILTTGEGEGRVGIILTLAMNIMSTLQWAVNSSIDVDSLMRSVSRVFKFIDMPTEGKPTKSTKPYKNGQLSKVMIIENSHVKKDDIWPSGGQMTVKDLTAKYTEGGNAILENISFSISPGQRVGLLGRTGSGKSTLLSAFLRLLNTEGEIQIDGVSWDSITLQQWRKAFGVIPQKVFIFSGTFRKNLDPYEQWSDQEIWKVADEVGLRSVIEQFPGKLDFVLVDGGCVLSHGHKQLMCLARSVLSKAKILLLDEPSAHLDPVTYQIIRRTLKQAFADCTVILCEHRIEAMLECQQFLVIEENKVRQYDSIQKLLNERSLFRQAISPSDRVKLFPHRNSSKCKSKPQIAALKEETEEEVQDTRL

Emax [1] [%]	EC50 [2] [µM]	Maximum % activity (with co-corrector) [3]	EC50 [4] [µM]	Maximum % activity (with co-corrector) [5]	Emax [6] [%]	EC50 [7] [µM]	EC50 [8] [µM]	Maximum % activity (with co-corrector) [9]	Emax [10] [%]	Maximum % activity (without co-corrector) [10]	Structure (SMILES)
> 200	1 to 10	+++ (≥350)	1 to 10	–	–	–	–	–	–	–	COc1ccc(C(C)(C)C)cc1CN[C@H]1[C@H](C(C)(C)C)[C@@H](C(=O)O)N(C(=O)[C@H]2C[C@@H]3CC[C@H]2O3)[C@H]1c1ccccc1 [II-543]
> 200	1 to 10	+++ (≥350)	< 1	–	–	–	–	–	–	–	COc1ccc(OC(F)(F)F)cc1CN[C@H]1[C@H](C(C)(C)C)[C@@H](C(=O)O)N(C(=O)OC(C)C)[C@H]1c1ccccc1C(C)C [II-560]
< 100	1 to 10	++ (≥150 and <350)	1 to 10	–	–	–	–	–	–	–	COc1ccc(C(C)(C)C)cc1CN[C@@H]1[C@@H](C(C)(C)C)[C@@H](C(=O)O)N(C(=O)C2CCCCC2)[C@H]1c1ccccc1 [II-412]
> 200	< 1	+++ (≥350)	< 1	–	–	–	–	–	–	–	COc1ccc(C2(C)CCC2)cc1CN[C@H]1[C@H](C(C)(C)C)[C@@H](C(=O)O)N(C(=O)C2CCCCC2)[C@H]1c1ccccc1 [II-462]
100 to 200	1 to 10	–	1 to 10	+++ (≥350)	–	–	–	–	–	–	CCc1cc2ccc(Cl)cc2nc1N[C@H]1[C@H](C(C)(C)C)[C@@H](C(=O)O)N(C(=O)C2CCCCC2)[C@H]1c1ccccc1 [III-149]
–	1 to 10	–	< 1	+++ (≥350)	> 200	–	–	–	–	–	COc1cc2c(cc1CN[C@H]1[C@H](C(C)(C)C)[C@@H](C(=O)O)N(C(=O)[C@@H]3CCCC(F)(F)C3)[C@H]1c1ccccc1)CCC2 [Example I-190]
–	1 to 10	–	1 to 10	+++ (≥350)	> 200	–	–	–	–	–	COC(=O)N1CCC[C@@H](C(=O)N2[C@H](c3ccccc3)[C@H](Nc3cc(C(F)(F)F)cc(C)n3)[C@@H](C(C)(C)C)[C@@H]2C(=O)O)C1 (racemic) [Example I-27]
> 200	< 1	+++ (≥350)	< 1	–	–	–	–	–	–	–	COc1ccc(C(C)(C)C)cc1CN[C@H]1[C@H](C(C)(C)C)[C@@H](C(=O)O)N(C(=O)C2CCCCC2C(F)(F)F)[C@H]1c1ccccc1 (stereo partly shown) [II-378]
–	–	–	–	–	–	1 to 10	1 to 10	++ (≥150 and <350)	< 100	–	CCOc1ccc(CN[C@H]2[C@H](C(C)(C)C)[C@@H](C(=O)O)N(C(=O)C3CCCCC3)[C@H]2c2ccccc2)c(C)c1 [II-119]
< 100	1 to 10	+++ (≥350)	1 to 10	–	–	–	–	–	–	–	COc1ncc(C2=CCOCC2)cc1CN[C@H]1[C@H](C(C)(C)C)[C@@H](C(=O)O)N(C(=O)C2CCCCC2)[C@H]1c1ccccc1 [II-349]
–	–	–	–	–	–	1 to 10	< 1	+++ (≥350)	–	+++ (≥200)	COc1ccc(C(C)(C)C)cc1CN[C@H]1[C@H](C(C)(C)C)[C@@H](C(=O)O)N(C(=O)C(OC)c2cccc(Cl)c2)[C@H]1c1ccccc1 (single isomer, unassigned) [II-271]
–	1 to 10	–	< 1	+++ (≥350)	> 200	–	–	–	–	–	COc1ccc(C(C)(C)C)cc1CN[C@H]1[C@H](C(C)(C)C)[C@@H](C(=O)O)N(C(=O)c2c(C)nn(-c3ccccc3F)c2C)[C@H]1c1ccccc1 [Example I-146]
–	–	–	–	–	–	1 to 10	1 to 10	+++ (≥350)	100 to 200	–	COc1ccc(C(C)(C)C)cc1CN[C@H]1[C@H](C(C)(C)C)[C@@H](C(=O)O)N(C(=O)CC2CCC(F)(F)C2)[C@H]1c1ccccc1 (stereo partly shown) [II-218]
–	–	–	–	–	–	1 to 10	1 to 10	+++ (≥350)	> 200	–	COc1ccc(C(C)(C)C)cc1CN[C@H]1[C@H](C(C)(C)C)[C@@H](C(=O)O)N(C(=O)CC2CCC(F)(F)CC2)[C@H]1c1ccccc1 [II-188]
–	–	–	–	–	–	1 to 10	1 to 10	++ (≥150 and <350)	< 100	–	COc1cc(CN[C@H]2[C@H](C(C)(C)C)[C@@H](C(=O)O)N(C(=O)C3CCCCC3)[C@H]2c2ccccc2)c(F)cc1Cl [II-104]
–	1 to 10	–	< 1	+++ (≥350)	> 200	–	–	–	–	–	COc1ccc(C(C)(C)C)cc1CN[C@H]1[C@H](C(C)(C)C)[C@@H](C(=O)O)N(C(=O)C2C3CCCC32)[C@H]1c1cccnc1N(C)C (stereo partly shown) [Example I-201]
100 to 200	1 to 10	+++ (≥350)	1 to 10	–	–	–	–	–	–	–	COc1nc(C(C)(C)C)ccc1CN[C@H]1[C@H](C(C)(C)C)[C@@H](C(=O)O)N(C(=O)C2CCC(C)(C)C2)[C@H]1c1ccccc1 (stereo partly shown) [II-428]
–	1 to 10	–	1 to 10	+++ (≥350)	100 to 200	–	–	–	–	–	COc1ccc(C(C)(C)C)cc1CN[C@H]1[C@H](C(C)(C)C)[C@@H](C(=O)O)N(C(=O)[C@H]2CCCCO2)[C@H]1c1ccccc1OC(F)F [Example 45, (2S,3S,4S,5S)-3-tert-butyl-4-{[(5-tert-butyl-2-methoxyphenyl)methyl]amino}-5-[2-(difluoromethoxy)phenyl]-1-[(2R)-oxane-2-carbonyl]pyrrolidine-2-carboxylic acid]
–	1 to 10	–	1 to 10	+++ (≥350)	100 to 200	–	–	–	–	–	COc1ccc(C(F)(F)F)cc1CN[C@H]1[C@H](C(C)(C)C)[C@@H](C(=O)O)N(C(=O)C2CC3CC3C2)[C@H]1c1ccccc1 (stereo partly shown) [Example I-162]
–	1 to 10	–	1 to 10	+++ (≥350)	> 200	–	–	–	–	–	COc1cc(C(F)(F)F)ccc1CN[C@H]1[C@H](C(C)(C)C)[C@@H](C(=O)O)N(C(=O)[C@@H]2CCCCO2)[C@H]1c1ccccc1 [Example 10, (2S,3S,4S,5S)-3-tert-butyl-4-({[2-methoxy-4-(trifluoromethyl)phenyl]methyl}amino)-1-[(2S)-oxane-2-carbonyl]-5-phenylpyrrolidine-2-carboxylic acid]
100 to 200	< 1	+++ (≥350)	< 1	–	–	–	–	–	–	–	COc1cccc(-c2cnc(OC)c(CN[C@H]3[C@H](C(C)(C)C)[C@@H](C(=O)O)N(C(=O)C4CCCCC4)[C@H]3c3ccccc3)c2)c1 [Example II-341, (2S,3S,4S,5S)-3-(tert-butyl)-1-(cyclohexanecarbonyl)-4-(((2-methoxy-5-(3-methoxyphenyl)pyridin-3-yl)methyl)amino)-5-phenylpyrrolidine-2-carboxylic acid]
< 100	1 to 10	+++ (≥350)	1 to 10	–	–	–	–	–	–	–	COc1cccc(N[C@@H]2[C@@H](C(C)(C)C)[C@H](C(=O)O)N(C(=O)C3CCCCC3)[C@@H]2c2ccccc2)n1 (racemic) [III-8]
< 100	1 to 10	++ (≥150 and <350)	1 to 10	–	–	–	–	–	–	–	COc1nnc(C2CCC2)cc1CN[C@H]1[C@H](C(C)(C)C)[C@@H](C(=O)O)N(C(=O)C2CCCCC2)[C@H]1c1ccccc1 [II-496]
–	< 1	–	< 1	+++ (≥350)	100 to 200	–	–	–	–	–	COc1ncc(CC2CCCCC2)cc1CN[C@H]1[C@H](C(C)(C)C)[C@@H](C(=O)O)N(C(=O)C2CCCCC2)[C@H]1c1ccccc1 [Example I-71]
–	1 to 10	–	< 1	+++ (≥350)	100 to 200	–	–	–	–	–	COc1cc(C(F)(F)F)ccc1CN[C@H]1[C@H](C(C)(C)C)[C@@H](C(=O)O)N(C(=O)C2CCCCC2)[C@H]1c1cccnc1OC [Example I-39]
–	–	–	–	–	–	1 to 10	1 to 10	+++ (≥350)	100 to 200	–	COc1ccc(C(F)(F)F)cc1CN[C@H]1[C@H](C(C)(C)C)[C@@H](C(=O)O)N(C(=O)[C@@H](C)OC)[C@H]1c1ccccc1 [II-120]
–	> 10	–	1 to 10	+ (<150)	< 100	–	–	–	–	–	COc1c(CN[C@@H]2[C@@H](C(C)(C)C)[C@H](C(=O)O)N(C(=O)C3CCCCC3)[C@@H]2c2ccccc2)c(C)nn1C (racemic) [Example I-4]
–	< 1	–	< 1	+++ (≥350)	> 200	–	–	–	–	–	COc1ccc(C(C)(C)C)cc1CN[C@H]1[C@H](C(C)(C)C)[C@@H](C(=O)O)N(C(=O)C2Cc3ccccc3O2)[C@H]1c1ccccc1 (single isomer, unassigned) [Example 28, (2S,3S,4S,5S)-3-tert-butyl-4-{[(5-tert-butyl-2-methoxyphenyl)methyl]amino}-1-[(2S*)-2,3-dihydro-1-benzofuran-2-carbonyl]-5-phenylpyrrolidine-2-carboxylic acid]
